Experimental data as given in patent US20230295200A1 (REGENTS OF THE UNIVERSITY OF MICHIGAN, priority 2022, published 2023).
pKi: −log10 of the molar value.

Assays:
[1] = molecular target: T1, STAT6 protein (Homo sapiens, UniProt P42226); test: Fluorescence polarization (FP) binding assay, STAT6; conditions: FP competition, 5 nM fluorescein-labeled tracer, 200 nM protein, PBS pH7.4; read-out: Binding STAT6
T1 sequence (P42226 1-847): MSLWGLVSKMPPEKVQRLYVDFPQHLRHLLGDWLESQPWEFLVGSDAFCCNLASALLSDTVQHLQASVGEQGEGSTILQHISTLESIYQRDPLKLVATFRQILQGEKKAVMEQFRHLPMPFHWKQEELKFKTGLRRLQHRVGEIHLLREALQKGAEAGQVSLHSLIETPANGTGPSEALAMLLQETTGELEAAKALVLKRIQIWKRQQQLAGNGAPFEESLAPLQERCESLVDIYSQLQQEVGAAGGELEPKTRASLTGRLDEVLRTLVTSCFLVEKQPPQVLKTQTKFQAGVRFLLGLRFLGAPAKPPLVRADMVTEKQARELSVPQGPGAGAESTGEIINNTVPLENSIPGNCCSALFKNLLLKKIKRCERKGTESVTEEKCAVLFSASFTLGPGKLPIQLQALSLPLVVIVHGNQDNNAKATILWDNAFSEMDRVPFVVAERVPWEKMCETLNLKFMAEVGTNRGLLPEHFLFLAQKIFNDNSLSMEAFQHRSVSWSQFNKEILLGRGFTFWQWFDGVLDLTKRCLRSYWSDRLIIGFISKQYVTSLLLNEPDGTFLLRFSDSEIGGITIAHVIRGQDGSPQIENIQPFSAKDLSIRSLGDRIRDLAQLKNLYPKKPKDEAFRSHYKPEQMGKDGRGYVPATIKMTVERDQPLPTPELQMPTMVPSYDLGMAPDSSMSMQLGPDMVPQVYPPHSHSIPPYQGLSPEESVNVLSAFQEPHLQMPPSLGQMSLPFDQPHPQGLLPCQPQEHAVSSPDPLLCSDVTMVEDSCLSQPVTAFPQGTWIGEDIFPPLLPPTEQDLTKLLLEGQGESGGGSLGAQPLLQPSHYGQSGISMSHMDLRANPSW
Outline: (§1)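 Competitive FP read-out with 5 nM fluorescein-labeled tracer and 200 nM STAT5 or STAT6 protein in PBS pH 7.4 containing 0.01% BGG, 0.01% Tween-20 and 2 mM DTT. Plates were shaken 15 min, then equilibrated 1 h at room temperature; inhibition constants came from nonlinear curve fitting.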

[2] = molecular target: T2, STAT5A (Homo sapiens, UniProt P42229); test: Fluorescence polarization (FP) binding assay, STAT5A; conditions: FP competition, 5 nM fluorescein-labeled tracer, 200 nM protein, PBS pH7.4
T2 sequence (P42229 1-794): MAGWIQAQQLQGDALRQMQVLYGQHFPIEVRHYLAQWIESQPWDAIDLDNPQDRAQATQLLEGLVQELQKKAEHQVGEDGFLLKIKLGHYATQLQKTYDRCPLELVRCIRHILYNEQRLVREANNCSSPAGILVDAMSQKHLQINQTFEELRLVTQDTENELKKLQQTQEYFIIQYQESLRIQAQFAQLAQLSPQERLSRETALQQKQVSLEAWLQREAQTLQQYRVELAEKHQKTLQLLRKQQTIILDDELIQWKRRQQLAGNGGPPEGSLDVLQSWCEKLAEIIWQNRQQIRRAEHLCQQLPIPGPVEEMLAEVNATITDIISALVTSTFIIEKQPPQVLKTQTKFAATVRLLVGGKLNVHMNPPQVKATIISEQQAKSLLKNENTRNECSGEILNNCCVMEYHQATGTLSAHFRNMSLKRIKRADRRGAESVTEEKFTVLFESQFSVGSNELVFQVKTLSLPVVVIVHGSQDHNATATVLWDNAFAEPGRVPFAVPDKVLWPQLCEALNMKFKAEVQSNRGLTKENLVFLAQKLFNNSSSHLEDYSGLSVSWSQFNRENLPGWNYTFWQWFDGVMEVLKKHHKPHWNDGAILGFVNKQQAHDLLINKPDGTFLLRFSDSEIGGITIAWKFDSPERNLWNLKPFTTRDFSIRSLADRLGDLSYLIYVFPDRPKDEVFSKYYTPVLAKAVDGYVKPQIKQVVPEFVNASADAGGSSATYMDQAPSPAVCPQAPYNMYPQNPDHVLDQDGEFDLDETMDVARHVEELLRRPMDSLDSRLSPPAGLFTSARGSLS
Outline: as §1

SMILES | pKi [1] | pKi [2]
CC(C)(C)[C@H](NC(=O)c1cc2cc(C(F)(F)P(=O)(O)O)ccc2s1)C(=O)N1Cc2ccccc2[C@H]1C(=O)N1CCO[C@H](c2ccccc2)C1 [Compound 195, ((2-(((S)-3,3-dimethyl-1-oxo-1-((S)-1-((R)-2-phenylmorpholine-4-carbonyl)isoindolin-2-yl)butan-2-yl)carbamoyl)benzo[b]thiophen-5-yl)difluoromethyl)phosphonic acid] | > 7.00 | 5.00 to 6.00
CC(C)(C)[C@H](NC(=O)c1cc2cc(C(F)(F)P(=O)(O)O)ccc2s1)C(=O)N1Cc2ccccc2[C@H]1C(=O)N1CCC[C@H](c2ccccc2)C1 [Compound 196, ((2-(((S)-3,3-dimethyl-1-oxo-1-((S)-1-((R)-3-phenylpiperidine-1-carbonyl)isoindolin-2-yl)butan-2-yl)carbamoyl)benzo[b]thiophen-5-yl)difluoromethyl)phosphonic acid] | > 7.00 | 5.00 to 6.00
CC(C)(C)[C@H](NC(=O)c1cc2cc(C(F)(F)P(=O)(O)O)ccc2s1)C(=O)N1Cc2ccccc2[C@H]1C(=O)N1CC[C@H](c2ccccc2)C1 [Compound 197, ((2-(((S)-3,3-dimethyl-1-oxo-1-((S)-1-((R)-3-phenylpyrrolidine-1-carbonyl)isoindolin-2-yl)butan-2-yl)carbamoyl)benzo[b]thiophen-5-yl)difluoromethyl)phosphonic acid] | 5.00 to 6.00 | < 5.00
CC(C)(C)[C@H](NC(=O)c1cc2cc(C(F)(F)P(=O)(O)O)ccc2s1)C(=O)N1Cc2ccccc2[C@H]1C(=O)N1CC[C@@H](c2ccccc2)C1 [Compound 198, ((2-(((S)-3,3-dimethyl-1-oxo-1-((S)-1-((S)-3-phenylpyrrolidine-1-carbonyl)isoindolin-2-yl)butan-2-yl)carbamoyl)benzo[b]thiophen-5-yl)difluoromethyl)phosphonic acid] | 6.00 to 7.00 | 5.00 to 6.00
CC(C)(C)[C@H](NC(=O)c1cc2cc(C(F)(F)P(=O)(O)O)ccc2s1)C(=O)N1Cc2ccccc2[C@H]1C(=O)N1Cc2ccccc2C1 [Compound 199, (difluoro(2-(((S)-1-((S)-1-(isoindoline-2-carbonyl)isoindolin-2-yl)-3,3-dimethyl-1-oxobutan-2-yl)carbamoyl)benzo[b]thiophen-5-yl)methyl)phosphonic acid] | 5.00 to 6.00 | < 5.00
CC(C)(C)[C@H](NC(=O)c1cc2cc(C(F)(F)P(=O)(O)O)ccc2s1)C(=O)N1Cc2ccccc2[C@H]1C(=O)Nc1ncc(-c2ccccc2)s1 [Compound 200, ((2-(((S)-3,3-dimethyl-1-oxo-1-((S)-1-((5-phenylthiazol-2-yl)carbamoyl)isoindolin-2-yl)butan-2-yl)carbamoyl)benzo[b]thiophen-5-yl)difluoromethyl)phosphonic acid] | 5.00 to 6.00 | 6.00 to 7.00
CC(C)(C)[C@H](NC(=O)c1cc2cc(C(F)(F)P(=O)(O)O)ccc2s1)C(=O)N1CCN(C(=O)OCc2ccccc2)C[C@H]1C(=O)Nc1ncc(-c2ccccc2)s1 [Compound 201, ((2-(((S)-1-((S)-4-((benzyloxy)carbonyl)-2-((5-phenylthiazol-2-yl)carbamoyl)piperazin-1-yl)-3,3-dimethyl-1-oxobutan-2-yl)carbamoyl)benzo[b]thiophen-5-yl)difluoromethyl)phosphonic acid] | 5.00 to 6.00 | 6.00 to 7.00
CC(C)(C)[C@H](NC(=O)c1cc2cc(C(F)(F)P(=O)(O)O)ccc2s1)C(=O)N1C[C@H](OCc2ccccc2)C[C@H]1C(=O)N1Cc2ccccc2C1 [Compound 202, ((2-(((S)-1-((2S,4R)-4-(benzyloxy)-2-(isoindoline-2-carbonyl)pyrrolidin-1-yl)-3,3-dimethyl-1-oxobutan-2-yl)carbamoyl)benzo[b]thiophen-5-yl)difluoromethyl)phosphonic acid] | 5.00 to 6.00 | 5.00 to 6.00
CC(C)(C)[C@H](NC(=O)c1cc2cc(C(F)(F)P(=O)(O)O)ccc2s1)C(=O)N1C[C@H](OCc2ccccc2)C[C@H]1C(=O)Nc1ncc(-c2ccccc2)s1 [Compound 203, ((2-(((S)-1-((2S,4R)-4-(benzyloxy)-2-((5-phenylthiazol-2-yl)carbamoyl)pyrrolidin-1-yl)-3,3-dimethyl-1-oxobutan-2-yl)carbamoyl)benzo[b]thiophen-5-yl)difluoromethyl)phosphonic acid] | 5.00 to 6.00 | 6.00 to 7.00
CCOC(=O)CO[C@H]1C[C@@H](C(=O)Nc2ncc(-c3ccccc3)s2)N(C(=O)[C@@H](NC(=O)c2cc3cc(C(F)(F)P(=O)(O)O)ccc3s2)C(C)(C)C)C1 [Compound 205, ((2-(((S)-1-((2S,4S)-4-(2-ethoxy-2-oxoethoxy)-2-((5-phenylthiazol-2-yl)carbamoyl)pyrrolidin-1-yl)-3,3-dimethyl-1-oxobutan-2-yl)carbamoyl)benzo[b]thiophen-5-yl)difluoromethyl)phosphonic acid] | 5.00 to 6.00 | 5.00 to 6.00
CCOC(=O)CO[C@@H]1C[C@@H](C(=O)Nc2ncc(-c3ccccc3)s2)N(C(=O)[C@@H](NC(=O)c2cc3cc(C(F)(F)P(=O)(O)O)ccc3s2)C(C)(C)C)C1 [Compound 206, ((2-(((S)-1-((2S,4R)-4-(2-ethoxy-2-oxoethoxy)-2-((5-phenylthiazol-2-yl)carbamoyl)pyrrolidin-1-yl)-3,3-dimethyl-1-oxobutan-2-yl)carbamoyl)benzo[b]thiophen-5-yl)difluoromethyl)phosphonic acid] | 5.00 to 6.00 | 6.00 to 7.00
CC(C)(C)[C@H](NC(=O)c1cc2cc(C(F)(F)P(=O)(O)O)ccc2s1)C(=O)N1C[C@@H](Oc2ccccc2)C[C@H]1C(=O)Nc1ncc(-c2ccccc2)s1 [Compound 207, ((2-(((S)-3,3-dimethyl-1-oxo-1-((2S,4S)-4-phenoxy-2-((5-phenylthiazol-2-yl)carbamoyl)pyrrolidin-1-yl)butan-2-yl)carbamoyl)benzo[b]thiophen-5-yl)difluoromethyl)phosphonic acid] | 5.00 to 6.00 | 5.00 to 6.00
CC(C)(C)[C@H](NC(=O)c1cc2cc(C(F)(F)P(=O)(O)O)ccc2s1)C(=O)N1C[C@H](Oc2ccccc2)C[C@H]1C(=O)Nc1ncc(-c2ccccc2)s1 [Compound 208, ((2-(((S)-3,3-dimethyl-1-oxo-1-((2S,4R)-4-phenoxy-2-((5-phenylthiazol-2-yl)carbamoyl)pyrrolidin-1-yl)butan-2-yl)carbamoyl)benzo[b]thiophen-5-yl)difluoromethyl)phosphonic acid] | 5.00 to 6.00 | 6.00 to 7.00
CC(C)(C)[C@H](NC(=O)c1cc2cc(C(F)(F)P(=O)(O)O)ccc2s1)C(=O)N1C[C@@H](Oc2ccc3ccccc3c2)C[C@H]1C(=O)Nc1ncc(-c2ccccc2)s1 [Compound 209, ((2-(((S)-3,3-dimethyl-1-((2S,4S)-4-(naphthalen-2-yloxy)-2-((5-phenylthiazol-2-yl)carbamoyl)pyrrolidin-1-yl)-1-oxobutan-2-yl)carbamoyl)benzo[b]thiophen-5-yl)difluoromethyl)phosphonic acid] | 5.00 to 6.00 | < 5.00
CC(C)(C)[C@H](NC(=O)c1cc2cc(C(F)(F)P(=O)(O)O)ccc2s1)C(=O)N1C[C@H](Oc2ccc3ccccc3c2)C[C@H]1C(=O)Nc1ncc(-c2ccccc2)s1 [Compound 210, ((2-(((S)-3,3-dimethyl-1-((2S,4R)-4-(naphthalen-2-yloxy)-2-((5-phenylthiazol-2-yl)carbamoyl)pyrrolidin-1-yl)-1-oxobutan-2-yl)carbamoyl)benzo[b]thiophen-5-yl)difluoromethyl)phosphonic acid] | 5.00 to 6.00 | 5.00 to 6.00
